{
  "source": "paper doi:10.1101/2023.11.24.568596v1",
  "about": "(biorxiv, 2023)",
  "settings_in_all_cases": "binder",
  "key": {"[1]": {"biological_target": "MST4 (Homo sapiens, UniProt Q9P289)", "sequence (Q9P289 whole entry)": "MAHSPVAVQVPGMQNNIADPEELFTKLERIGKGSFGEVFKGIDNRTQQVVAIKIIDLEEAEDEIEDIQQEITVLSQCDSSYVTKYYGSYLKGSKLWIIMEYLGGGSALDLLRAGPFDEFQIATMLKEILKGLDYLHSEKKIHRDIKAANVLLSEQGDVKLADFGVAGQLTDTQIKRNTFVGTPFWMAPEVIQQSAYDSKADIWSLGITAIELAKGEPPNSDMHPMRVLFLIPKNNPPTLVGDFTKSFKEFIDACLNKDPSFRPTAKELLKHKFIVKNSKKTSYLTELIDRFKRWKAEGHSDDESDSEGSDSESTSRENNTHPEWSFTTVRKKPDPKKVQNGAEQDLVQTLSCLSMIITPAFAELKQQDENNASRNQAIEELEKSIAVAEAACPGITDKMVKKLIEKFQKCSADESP"}, "[2]": {"biological_target": "T1, MST2 (Homo sapiens, UniProt Q13188)", "T1 sequence (Q13188 1-491)": "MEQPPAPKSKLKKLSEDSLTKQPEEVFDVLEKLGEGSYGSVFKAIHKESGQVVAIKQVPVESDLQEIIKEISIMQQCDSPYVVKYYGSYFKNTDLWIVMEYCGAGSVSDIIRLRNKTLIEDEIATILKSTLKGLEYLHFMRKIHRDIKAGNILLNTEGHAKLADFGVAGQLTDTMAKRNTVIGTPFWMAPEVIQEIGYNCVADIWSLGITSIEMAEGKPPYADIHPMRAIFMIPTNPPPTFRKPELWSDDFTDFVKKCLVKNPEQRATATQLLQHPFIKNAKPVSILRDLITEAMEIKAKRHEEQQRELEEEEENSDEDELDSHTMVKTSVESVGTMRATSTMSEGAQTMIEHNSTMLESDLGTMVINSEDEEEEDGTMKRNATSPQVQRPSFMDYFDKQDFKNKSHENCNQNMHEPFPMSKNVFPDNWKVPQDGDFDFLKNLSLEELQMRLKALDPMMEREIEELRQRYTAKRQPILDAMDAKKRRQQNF"}, "[3]": {"biological_target": "T2, BRPF1 (Homo sapiens, UniProt P55201)", "T2 sequence (P55201 1-1214)": "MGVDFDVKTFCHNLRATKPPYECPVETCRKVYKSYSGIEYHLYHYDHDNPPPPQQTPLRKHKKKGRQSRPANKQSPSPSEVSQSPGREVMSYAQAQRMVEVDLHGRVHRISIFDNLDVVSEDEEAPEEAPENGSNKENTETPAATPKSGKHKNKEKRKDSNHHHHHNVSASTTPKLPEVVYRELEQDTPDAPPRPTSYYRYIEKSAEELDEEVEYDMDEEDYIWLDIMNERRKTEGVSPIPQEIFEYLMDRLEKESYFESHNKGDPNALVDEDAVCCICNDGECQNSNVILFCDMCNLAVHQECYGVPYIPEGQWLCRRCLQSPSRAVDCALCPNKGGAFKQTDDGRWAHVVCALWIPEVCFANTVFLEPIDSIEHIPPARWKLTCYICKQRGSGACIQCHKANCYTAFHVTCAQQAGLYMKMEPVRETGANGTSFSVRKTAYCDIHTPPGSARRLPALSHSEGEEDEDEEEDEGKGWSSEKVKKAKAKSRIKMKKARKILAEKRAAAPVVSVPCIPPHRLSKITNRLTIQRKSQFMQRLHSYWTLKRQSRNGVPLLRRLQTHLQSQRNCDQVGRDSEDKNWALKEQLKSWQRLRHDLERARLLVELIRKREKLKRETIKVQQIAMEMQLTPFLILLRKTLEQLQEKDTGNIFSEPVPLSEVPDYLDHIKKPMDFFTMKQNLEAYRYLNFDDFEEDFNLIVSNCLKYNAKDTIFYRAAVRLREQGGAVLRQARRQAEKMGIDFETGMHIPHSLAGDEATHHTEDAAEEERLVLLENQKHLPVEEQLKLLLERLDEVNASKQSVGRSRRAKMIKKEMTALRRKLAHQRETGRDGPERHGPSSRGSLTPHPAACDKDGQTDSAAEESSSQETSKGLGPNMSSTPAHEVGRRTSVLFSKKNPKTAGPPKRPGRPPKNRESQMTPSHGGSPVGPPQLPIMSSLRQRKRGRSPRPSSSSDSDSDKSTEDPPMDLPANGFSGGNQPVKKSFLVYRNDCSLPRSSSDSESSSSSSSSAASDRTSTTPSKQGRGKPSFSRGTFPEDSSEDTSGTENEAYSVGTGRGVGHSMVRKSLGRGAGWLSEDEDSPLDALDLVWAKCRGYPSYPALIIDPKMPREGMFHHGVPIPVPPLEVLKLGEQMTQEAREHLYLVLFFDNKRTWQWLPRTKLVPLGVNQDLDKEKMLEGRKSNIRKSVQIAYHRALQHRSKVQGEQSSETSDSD"}, "[4]": {"biological_target": "T3, MAP2K6 (Homo sapiens, UniProt P52564)", "T3 sequence (P52564 1-334)": "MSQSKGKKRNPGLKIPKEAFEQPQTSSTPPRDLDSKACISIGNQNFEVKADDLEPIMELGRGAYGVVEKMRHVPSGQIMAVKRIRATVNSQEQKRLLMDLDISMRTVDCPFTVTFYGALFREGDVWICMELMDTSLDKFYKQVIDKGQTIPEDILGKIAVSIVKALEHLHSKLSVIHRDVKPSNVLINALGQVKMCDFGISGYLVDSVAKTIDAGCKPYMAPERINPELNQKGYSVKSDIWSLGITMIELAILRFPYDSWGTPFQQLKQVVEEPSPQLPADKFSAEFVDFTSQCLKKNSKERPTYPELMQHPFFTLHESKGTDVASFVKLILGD"}, "[5]": {"biological_target": "T4, DRAK2 (Homo sapiens, UniProt O94768)", "T4 sequence (O94768 1-372)": "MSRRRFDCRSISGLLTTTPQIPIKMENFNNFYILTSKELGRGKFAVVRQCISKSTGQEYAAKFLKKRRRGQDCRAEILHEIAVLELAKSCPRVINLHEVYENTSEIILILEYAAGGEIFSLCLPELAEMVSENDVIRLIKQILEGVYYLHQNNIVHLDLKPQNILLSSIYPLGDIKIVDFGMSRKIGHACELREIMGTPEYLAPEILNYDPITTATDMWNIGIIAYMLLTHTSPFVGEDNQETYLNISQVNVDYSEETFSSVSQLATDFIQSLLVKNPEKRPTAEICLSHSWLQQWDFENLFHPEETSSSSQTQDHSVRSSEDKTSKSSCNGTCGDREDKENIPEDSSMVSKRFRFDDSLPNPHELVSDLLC"}, "[6]": {"biological_target": "PCTAIRE1 (Homo sapiens, UniProt Q00536)", "sequence (Q00536 whole entry)": "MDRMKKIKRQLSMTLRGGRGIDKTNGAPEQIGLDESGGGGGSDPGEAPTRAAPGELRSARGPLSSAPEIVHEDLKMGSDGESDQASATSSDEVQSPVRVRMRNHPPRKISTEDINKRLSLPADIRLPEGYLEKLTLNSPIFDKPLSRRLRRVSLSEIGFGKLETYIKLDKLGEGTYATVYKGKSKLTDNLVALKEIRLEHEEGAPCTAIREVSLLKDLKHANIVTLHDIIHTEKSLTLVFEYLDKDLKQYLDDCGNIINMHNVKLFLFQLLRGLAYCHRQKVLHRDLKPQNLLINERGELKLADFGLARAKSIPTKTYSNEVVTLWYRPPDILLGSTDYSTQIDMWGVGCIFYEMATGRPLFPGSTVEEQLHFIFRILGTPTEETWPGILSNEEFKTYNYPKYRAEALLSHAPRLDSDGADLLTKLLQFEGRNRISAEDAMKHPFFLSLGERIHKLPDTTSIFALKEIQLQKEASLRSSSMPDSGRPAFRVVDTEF"}},
  "data": [
    {"smiles": "CNc1ncc2cc(-c3ccc(-c4cccc(C)n4)cc3Cl)c(=O)n(CCCCN)c2n1", "note": "[compound 20, MRLW5]", "values": [
      {"measurement": "dTm MST4", "setting": "[1]", "value": 11.4, "unit": "°C"},
      {"measurement": "dTm MST2", "setting": "[2]", "value": 7.9, "unit": "°C"}
    ]},
    {"smiles": "CNc1ncc2cc(-c3ccc(-c4cccc(C)n4)cc3Cl)c(=O)n(CCC3CCNCC3)c2n1", "note": "[compound 22, 6-(2-Chloro-4-(6-methylpyridin-2-yl)phenyl)-2-(methylamino)-8-(2-(piperidin-4-yl)ethyl)pyrido[2,3-d]pyrimidin-7(8H)-one]", "values": [
      {"measurement": "dTm MST4", "setting": "[1]", "value": 7.8, "unit": "°C"},
      {"measurement": "dTm MST2", "setting": "[2]", "value": 8.0, "unit": "°C"},
      {"measurement": "ΔTm 22", "setting": "[3]", "value": -0.4, "unit": "°C"}
    ]},
    {"smiles": "CNc1ncc2cc(-c3ccc(-c4cccc(C)n4)cc3Cl)c(=O)n(C[C@H]3CC[C@H](N)CC3)c2n1", "note": "[compound 23, 23]", "values": [
      {"measurement": "dTm MST4", "setting": "[1]", "value": 8.2, "unit": "°C"},
      {"measurement": "dTm MST2", "setting": "[2]", "value": 10.8, "unit": "°C"},
      {"measurement": "ΔTm 23", "setting": "[3]", "value": -1.8, "unit": "°C"}
    ]},
    {"smiles": "Cc1cccc(-c2ccc(-c3cc4cnc(NC(CO)CO)nc4n(CCCCN)c3=O)c(Cl)c2)n1", "note": "[compound 24, 8-(4-Aminobutyl)-6-(2-chloro-4-(6-methylpyridin-2-yl)phenyl)-2-((1,3-dihydroxypropan-2-yl)amino)pyrido[2,3-d]pyrimidin-7(8H)-one]", "values": [
      {"measurement": "ΔTm MR24 (24)", "setting": "[3]", "value": -1.5, "unit": "°C"}
    ]},
    {"smiles": "Cc1cccc(-c2ccc(-c3cc4cnc(NCCCc5ccc(N)cc5)nc4n(CCCCN)c3=O)c(Cl)c2)n1", "note": "[compound 25, 8-(4-Aminobutyl)-2-((3-(4-aminophenyl)propyl)amino)-6-(2-chloro-4-(6-methylpyridin-2-yl)phenyl)pyrido[2,3-d]pyrimidin-7(8H)-one]", "values": [
      {"measurement": "ΔTm 25", "setting": "[3]", "value": -1.4, "unit": "°C"}
    ]},
    {"smiles": "Cc1cccc(-c2ccc(-c3cc4cnc(NCCCN5CCOCC5)nc4n(CCCCN)c3=O)c(Cl)c2)n1", "note": "[compound 26, MR26]", "values": [
      {"measurement": "ΔTm MR26 (26)", "setting": "[3]", "value": -1.0, "unit": "°C"}
    ]},
    {"smiles": "Cc1cccc(-c2ccc(-c3cc4cnc(Nc5ccc(F)c(CO)c5)nc4n(CCCCN)c3=O)c(Cl)c2)n1", "note": "[compound 33, 8-(4-Aminobutyl)-6-(2-chloro-4-(6-methylpyridin-2-yl)phenyl)-2-((4-fluoro-3-(hydroxymethyl)phenyl)amino)pyrido[2,3-d]pyrimidin-7(8H)-one]", "values": [
      {"measurement": "dTm 33", "setting": "[4]", "value": 10.2, "unit": "°C"},
      {"measurement": "dTm 33", "setting": "[5]", "value": 10.5, "unit": "°C"},
      {"measurement": "dTm 33", "setting": "[6]", "value": 5.2, "unit": "°C"}
    ]},
    {"smiles": "COc1ccc(O)c(Nc2ncc3cc(-c4ccc(-c5cccc(C)n5)cc4Cl)c(=O)n(CCCCN)c3n2)c1", "note": "[compound 34, 8-(4-Aminobutyl)-6-(2-chloro-4-(6-methylpyridin-2-yl)phenyl)-2-((2-hydroxy-5-methoxy-phenyl)amino)pyrido[2,3-d]pyrimidin-7(8H)-one]", "values": [
      {"measurement": "dTm 34", "setting": "[4]", "value": 5.4, "unit": "°C"},
      {"measurement": "dTm 34", "setting": "[5]", "value": 7.5, "unit": "°C"},
      {"measurement": "dTm 34", "setting": "[6]", "value": 0.6, "unit": "°C"}
    ]},
    {"smiles": "COc1cc(N2CCOCC2)ccc1Nc1ncc2cc(-c3ccc(-c4cccc(C)n4)cc3Cl)c(=O)n(CCCCN)c2n1", "note": "[compound 35, 8-(4-Aminobutyl)-6-(2-chloro-4-(6-methylpyridin-2-yl)phenyl)-2-((2-methoxy-4-morpholino-phenyl)amino)pyrido[2,3-d]pyrimidin-7(8H)-one]", "values": [
      {"measurement": "dTm 35", "setting": "[4]", "value": 6.8, "unit": "°C"},
      {"measurement": "dTm 35", "setting": "[5]", "value": 7.0, "unit": "°C"},
      {"measurement": "dTm 35", "setting": "[6]", "value": 0.1, "unit": "°C"}
    ]},
    {"smiles": "COc1cc(N2CCN(C)CC2)ccc1Nc1ncc2cc(-c3ccc(-c4cccc(C)n4)cc3Cl)c(=O)n(CCCCN)c2n1", "note": "[compound 36, 8-(4-Aminobutyl)-6-(2-chloro-4-(6-methylpyridin-2-yl)phenyl)-2-((2-methoxy-4-(4-methylpiperazin-1-yl)phenyl)amino)pyrido[2,3-d]pyrimidin-7(8H)-one]", "values": [
      {"measurement": "dTm 36", "setting": "[4]", "value": 4.4, "unit": "°C"},
      {"measurement": "dTm 36", "setting": "[5]", "value": 4.3, "unit": "°C"},
      {"measurement": "dTm 36", "setting": "[6]", "value": 0.2, "unit": "°C"}
    ]}
  ]
}
